Each structure is given as a SMILES string.
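Note: spheroids exposed to compounds for 7 days before readout.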
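Throughout, for viability, T/C: percent of vehicle DMSO control viability with 100% = untreated-like growth.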

For one test, the system named is 282377-053-R-J1-PDC complex spheroids, viability. The test can be described thus: Anticancer human tumor 282377-053-R-J1-PDC patient-derived colon adenocarcinoma cell line growth inhibition [GQUAD]. The settings on record: curve of first compound; second compound 10 µM. Put shortly: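 Multi-cell-type spheroids of tumor cells with HUVEC and mesenchymal stem cells, treated with drug combinations. Concentrations descend in half-log steps from near clinical Cmax, or from 10 microM where Cmax is unknown; viability read-out.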
By IC50 is commonly meant the concentration that inhibits the measured activity by half. As to `COc1ncnc(C2CC2)c1-c1ncc2cnn(Cc3ccc(-c4nc(C(F)(F)F)cn4C(C)C)cc3)c2n1` + Cc1[nH]c2ccc(F)cc2c1-c1nc2c3cccnc3c3ncccc3c2[nH]1, the IC50 came out at 3360 nM.

`CC1COCCN1c1cc(-c2ccnn2C)c2ccnc(-c3ccn[nH]3)c2n1` (stereo unspecified) + Cc1cnc(CNC(=O)c2c(=O)c3ccc(N4CCCN(C)CC4)nc3n3c2sc2ccccc23)cn1: the IC50 was less than 31.6 nM.

On to `CC1COCCN1c1cc(C2(S(C)(=N)=O)CC2)nc(-c2ccnc3[nH]ccc23)n1` (stereo unspecified) + Cc1cnc(CNC(=O)c2c(=O)c3ccc(N4CCCN(C)CC4)nc3n3c2sc2ccccc23)cn1, for which the half-maximal inhibitory concentration (IC50) was less than 31.6 nM.

Take `COc1ccc([C@@H](O)c2cc(-c3ncnc4cc(N5CCOCC5)ccc34)c(F)cc2Cl)nn1` + Cc1cnc(CNC(=O)c2c(=O)c3ccc(N4CCCN(C)CC4)nc3n3c2sc2ccccc23)cn1: the IC50 is less than 31.6 nM.

Still in this test, the particulars now being: second compound 0.0316 µM; first compound 0.0316 µM; stronger effect = lower value.
A word on the viability, T/C: it is the ratio of treated to control. As to `C=CCn1c(=O)c2cnc(Nc3ccc(N4CCN(C)CC4)cc3)nc2n1-c1cccc(C(C)(C)O)n1` + Cc1[nH]c2ccc(F)cc2c1-c1nc2c3cccnc3c3ncccc3c2[nH]1, the viability, T/C was 101%.

For `COc1ncnc(C2CC2)c1-c1ncc2cnn(Cc3ccc(-c4nc(C(F)(F)F)cn4C(C)C)cc3)c2n1` + Cc1[nH]c2ccc(F)cc2c1-c1nc2c3cccnc3c3ncccc3c2[nH]1, the viability, T/C was 97.6%.

For the compound `CC1COCCN1c1cc(-c2ccnn2C)c2ccnc(-c3ccn[nH]3)c2n1` (stereo unspecified) + Cc1cnc(CNC(=O)c2c(=O)c3ccc(N4CCCN(C)CC4)nc3n3c2sc2ccccc23)cn1, the viability, T/C is 97%.

In the case of `CC1COCCN1c1cc(C2(S(C)(=N)=O)CC2)nc(-c2ccnc3[nH]ccc23)n1` (stereo unspecified) + Cc1cnc(CNC(=O)c2c(=O)c3ccc(N4CCCN(C)CC4)nc3n3c2sc2ccccc23)cn1, the viability, T/C was 94.2%.

In the case of `COc1ccc([C@@H](O)c2cc(-c3ncnc4cc(N5CCOCC5)ccc34)c(F)cc2Cl)nn1` + Cc1cnc(CNC(=O)c2c(=O)c3ccc(N4CCCN(C)CC4)nc3n3c2sc2ccccc23)cn1, the viability, T/C is 97%.

Staying with this test, now noted: second compound 0.0316 µM; first compound 0.1 µM; stronger effect = lower value.
For `C=CCn1c(=O)c2cnc(Nc3ccc(N4CCN(C)CC4)cc3)nc2n1-c1cccc(C(C)(C)O)n1` + Cc1[nH]c2ccc(F)cc2c1-c1nc2c3cccnc3c3ncccc3c2[nH]1, the viability, T/C is 61.7%.

Take `COc1ncnc(C2CC2)c1-c1ncc2cnn(Cc3ccc(-c4nc(C(F)(F)F)cn4C(C)C)cc3)c2n1` + Cc1[nH]c2ccc(F)cc2c1-c1nc2c3cccnc3c3ncccc3c2[nH]1: the viability, T/C is 103%.

For `CC1COCCN1c1cc(-c2ccnn2C)c2ccnc(-c3ccn[nH]3)c2n1` (stereo unspecified) + Cc1cnc(CNC(=O)c2c(=O)c3ccc(N4CCCN(C)CC4)nc3n3c2sc2ccccc23)cn1, the viability, T/C was 46.1%.

Regarding `CC1COCCN1c1cc(C2(S(C)(=N)=O)CC2)nc(-c2ccnc3[nH]ccc23)n1` (stereo unspecified) + Cc1cnc(CNC(=O)c2c(=O)c3ccc(N4CCCN(C)CC4)nc3n3c2sc2ccccc23)cn1, the viability, T/C was 78.7%.

Take `COc1ccc([C@@H](O)c2cc(-c3ncnc4cc(N5CCOCC5)ccc34)c(F)cc2Cl)nn1` + Cc1cnc(CNC(=O)c2c(=O)c3ccc(N4CCCN(C)CC4)nc3n3c2sc2ccccc23)cn1: the viability, T/C was 82.7%.

Staying with this test, now noted: second compound 0.0316 µM; first compound 0.316 µM; stronger effect = lower value.
Consider `C=CCn1c(=O)c2cnc(Nc3ccc(N4CCN(C)CC4)cc3)nc2n1-c1cccc(C(C)(C)O)n1` + Cc1[nH]c2ccc(F)cc2c1-c1nc2c3cccnc3c3ncccc3c2[nH]1, for which the viability, T/C is 95%.

For `COc1ncnc(C2CC2)c1-c1ncc2cnn(Cc3ccc(-c4nc(C(F)(F)F)cn4C(C)C)cc3)c2n1` + Cc1[nH]c2ccc(F)cc2c1-c1nc2c3cccnc3c3ncccc3c2[nH]1, the viability, T/C was 91.9%.

Turning to `CC1COCCN1c1cc(-c2ccnn2C)c2ccnc(-c3ccn[nH]3)c2n1` (stereo unspecified) + Cc1cnc(CNC(=O)c2c(=O)c3ccc(N4CCCN(C)CC4)nc3n3c2sc2ccccc23)cn1, the viability, T/C is 36%.

For the compound `CC1COCCN1c1cc(C2(S(C)(=N)=O)CC2)nc(-c2ccnc3[nH]ccc23)n1` (stereo unspecified) + Cc1cnc(CNC(=O)c2c(=O)c3ccc(N4CCCN(C)CC4)nc3n3c2sc2ccccc23)cn1, the viability, T/C is 96.2%.

With `COc1ccc([C@@H](O)c2cc(-c3ncnc4cc(N5CCOCC5)ccc34)c(F)cc2Cl)nn1` + Cc1cnc(CNC(=O)c2c(=O)c3ccc(N4CCCN(C)CC4)nc3n3c2sc2ccccc23)cn1, the viability, T/C is 118%.

The test is the same for the next values; noted with them: second compound 0.0316 µM; first compound 1 µM; stronger effect = lower value.
For the compound `C=CCn1c(=O)c2cnc(Nc3ccc(N4CCN(C)CC4)cc3)nc2n1-c1cccc(C(C)(C)O)n1` + Cc1[nH]c2ccc(F)cc2c1-c1nc2c3cccnc3c3ncccc3c2[nH]1, the viability, T/C was 73.2%.

Regarding `COc1ncnc(C2CC2)c1-c1ncc2cnn(Cc3ccc(-c4nc(C(F)(F)F)cn4C(C)C)cc3)c2n1` + Cc1[nH]c2ccc(F)cc2c1-c1nc2c3cccnc3c3ncccc3c2[nH]1, the viability, T/C is 99.4%.

Consider `CC1COCCN1c1cc(-c2ccnn2C)c2ccnc(-c3ccn[nH]3)c2n1` (stereo unspecified) + Cc1cnc(CNC(=O)c2c(=O)c3ccc(N4CCCN(C)CC4)nc3n3c2sc2ccccc23)cn1, for which the viability, T/C is 27.8%.

On to `CC1COCCN1c1cc(C2(S(C)(=N)=O)CC2)nc(-c2ccnc3[nH]ccc23)n1` (stereo unspecified) + Cc1cnc(CNC(=O)c2c(=O)c3ccc(N4CCCN(C)CC4)nc3n3c2sc2ccccc23)cn1, for which the viability, T/C is 89.1%.

With `COc1ccc([C@@H](O)c2cc(-c3ncnc4cc(N5CCOCC5)ccc34)c(F)cc2Cl)nn1` + Cc1cnc(CNC(=O)c2c(=O)c3ccc(N4CCCN(C)CC4)nc3n3c2sc2ccccc23)cn1, the viability, T/C was 78.1%.

Staying with this test, now noted: second compound 0.0316 µM; first compound 3.16 µM; stronger effect = lower value.
For the compound `C=CCn1c(=O)c2cnc(Nc3ccc(N4CCN(C)CC4)cc3)nc2n1-c1cccc(C(C)(C)O)n1` + Cc1[nH]c2ccc(F)cc2c1-c1nc2c3cccnc3c3ncccc3c2[nH]1, the viability, T/C is 63.7%.

Take `COc1ncnc(C2CC2)c1-c1ncc2cnn(Cc3ccc(-c4nc(C(F)(F)F)cn4C(C)C)cc3)c2n1` + Cc1[nH]c2ccc(F)cc2c1-c1nc2c3cccnc3c3ncccc3c2[nH]1: the viability, T/C was 97.1%.

For the origin of these results see PubChem BioAssay AID2060501 (Molecular Pharmacology Branch, DTP, NCI, 2025).
